Source: patent US11728018B2, “Subject-specific system and method for prevention of body adaptation for chronic treatment of disease” (OBERON SCIENCES ILAN LTD., priority 2017, dated 2023)
Values joined by “and” are separate entries in the source; they are usually repeats but may differ in a detail not shown here. Identical values can stand only once. Like-named read-outs stand apart in the source and are kept apart here.

Key:
[1] = test system: C57 Bl mice receiving CONA; assay: Daily low dose CONA in mice, regular vs irregular dexamethasone administration, serum ALT; type: in vivo; settings: dexamethasone 50 mg/kg per day
Protocol: Mice: 24 C57 Bl mice, 12 weeks old, n=4/group
All animals received daily low dose CONA 300 μg/mouse daily for 10 days
Dexamethasone daily 50 mg/kg per day
ALT serum levels were monitored as follows

[2] = test system: PBMC from naïve GD patients; assay: PBMC from Gaucher patients incubated with ConA, IFNg ELISA; settings: for IFNg ELISA, second value (Conc) / IFNg Conc: Colchicine 0.0625 pg/ml or dexamethasone 250 ug/well
[3] = test system: C57Bl/6 mice given Con A; type: in vivo
[4] = test system: mice on a High fat diet; assay: Low dose colchicine in high fat diet model of type 2 diabetes and fatty liver; type: in vivo; settings: colchicine for two weeks, dose that had no anti-inflammatory effect
Protocol: • Give colchicine at the end of the experiment for two weeks to 4 mice who were on a High fat diet and developed diabetes and fatty liver disease. • Mice are treated with a dose that had no anti-inflammatory effect. • Test for glucose, ALT and cholesterol levels at the end of the two weeks.

[5] = test system: C57Bl/6 mice given Con A; assay: Colchicine by gavage once six hours before ConA injection, serum ALT; type: in vivo; settings: for ALT Average: N = 3
Protocol: Lack of an effect of low dose colchicine (0.5 mg, 3 times a day) as anti-inflammatory agent, while showing beneficial effect of low dose colchicine in diabetes and fatty liver disease. • Mice: C57Bl/6 mice, 11-12 weeks old • Duration: Mice will be administered once Colchicine six hours before ConA • Sacrifice: 14 hours after ConA injection.
Experiment Protocol: • Day 1: Administer all compounds by gavage 300 ul: saline or Colchicine • After 6 hours give Con A by injection IV 500 μg/mouse=20 mg/kg=[…] • Day 2: On the next day: sacrifice all mice • Take blood for serum ALT The results of this experiments are given in the table below and in FIG. 7.

[6] = in vivo; cited from earlier work
[7] = Patient 1, lymphocytes only 80.9
[8] = Patient 2, lymphocytes only 474.7

`C[C@@H]1C[C@H]2[C@@H]3CCC4=CC(=O)C=C[C@]4(C)[C@@]3(F)[C@@H](O)C[C@]2(C)[C@@]1(O)C(=O)CO` [Dexamethasone] showed an ALT serum level ([1]; Day 2, group B, regular 8AM every day) of 644.25, an ALT serum level ([1]; Day 2, group C, irregular time of administration) of 747 and an ALT serum level ([1]; Day 5, group B, regular 8AM every day) of 978.75. The ALT serum level ([1]; Day 5, group C, irregular time of administration) was 842.5, the ALT serum level ([1]; Day 10, group B, regular 8AM every day) was 1210.25 and the ALT serum level ([1]; Day 10, group C, irregular time of administration) was 876.75. For the same compound, the “IFNg ELISA, second value (Conc)” value ([2]; P1, lymphocytes only 80.9) was 33.29, the “IFNg ELISA, second value (Conc)” value ([2]; P2, lymphocytes only 474.7) was 23.29 and the “IFNg Conc” value [2, 7] was 33.29. For the same compound, the “IFNg Conc” value [2, 8] was 23.29.
In the case of `Nc1c(Br)cc(Br)cc1CN[C@H]1CC[C@H](O)CC1` [Ambroxol], the “ALT (IU)” value ([3]; Ambroxol 1.4 mg PO, alone or with Colchicine 0.01 mg/kg, control 6068) is reported as 4243 IU, the “ALT Average” value ([3]; Ambroxol arm, N = 3, control 6068) is reported as 4243 and the ALT ([3]; single mice, Ambroxol arm, dilution 1/40) is reported as 3683 and 4187 and 4859.
For `COc1cc2c(c(OC)c1OC)-c1ccc(OC)c(=O)cc1[C@@H](NC(C)=O)CC2` [Colchicine], the “Glucose (mg %)” value ([4]; control 190) was 155 mg %, the “ALT (IU)” value ([4]; control 278) was 103 IU and the “Cholesterol (mg %)” value ([4]; control 342) was 100 mg %. The “IFNg ELISA, second value (Conc)” value ([2]; P1, lymphocytes only 80.9) was 52.3, the “IFNg ELISA, second value (Conc)” value ([2]; P2, lymphocytes only 474.7) was 47.57 and the “IFNg Conc” value [2, 7] was 52.3. The “IFNg Conc” value [2, 8] was 47.57, the “effect on the inflammatory effect of PBMC from patients with Gaucher disease” value ([2]; summary in words) was “profound effect on suppressing the inflammatory effect of PBMC” and the “ALT Average” value ([5]; Low dose, Colchicine 0.005 μg/kg by gavage) was 3218. For the same compound, the “ALT Average” value ([5]; Regular dose, Colchicine 0.05 μg/kg by gavage) was 17134, the ALT ([5]; single mice, Regular dose, Colchicine 0.05 μg/kg by gavage, dilution 1/40) was 18946 and 19427 and 13029 and the “part of dose excreted unchanged by the kidneys” value [6] was 10-20%. For the same compound, the removal by hemodialysis [6] was “not removed by hemodialysis” and the “adjuvant effect on the efficacy of drugs” value ([3]; low dose colchicine, summary in words) was “can serve as a potent adjuvant to improve the efficacy of drugs”.
